In publication PMC11603075 (Communications Biology, 2024):

Tests used:
KDM5C [1] = biological target: T1, KDM5C (Homo sapiens, UniProt P41229); experiment: MALDI–TOF MS demethylation/+16 Da assay, KDM5C; type: biochemical; settings: 90 min
T1 construct: KDM5C 1– 765; made in house; host or cells: Sf9 cells
T1 sequence (P41229 1-765): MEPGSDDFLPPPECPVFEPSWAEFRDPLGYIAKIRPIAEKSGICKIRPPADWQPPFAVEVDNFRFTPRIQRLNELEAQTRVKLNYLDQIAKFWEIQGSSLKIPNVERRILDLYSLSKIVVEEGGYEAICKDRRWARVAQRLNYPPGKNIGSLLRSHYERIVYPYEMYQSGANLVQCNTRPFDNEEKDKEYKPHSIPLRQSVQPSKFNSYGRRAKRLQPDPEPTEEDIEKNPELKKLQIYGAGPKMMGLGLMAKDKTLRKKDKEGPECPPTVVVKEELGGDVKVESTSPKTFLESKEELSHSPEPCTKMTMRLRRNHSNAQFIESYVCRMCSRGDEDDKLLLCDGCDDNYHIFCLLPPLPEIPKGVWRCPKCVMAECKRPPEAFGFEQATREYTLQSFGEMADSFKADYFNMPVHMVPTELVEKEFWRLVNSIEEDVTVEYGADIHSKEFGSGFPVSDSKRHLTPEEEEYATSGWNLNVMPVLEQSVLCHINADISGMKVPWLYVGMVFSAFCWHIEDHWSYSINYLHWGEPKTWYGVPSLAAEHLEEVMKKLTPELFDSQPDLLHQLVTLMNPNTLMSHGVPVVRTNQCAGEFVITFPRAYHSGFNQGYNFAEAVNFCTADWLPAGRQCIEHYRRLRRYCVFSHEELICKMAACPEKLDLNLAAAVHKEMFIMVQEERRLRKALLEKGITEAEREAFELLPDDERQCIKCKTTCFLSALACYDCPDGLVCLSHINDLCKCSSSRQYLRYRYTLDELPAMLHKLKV
Source text: Fig. 2 Histone H2a fragments are KDM5 and KDM4 substrates. […] See Supplementary Table 6 and Supplementary Fig. 2 for assay conditions and quantification, respectively. […] 0-minute MS spectrum in black, 60/90-minute spectrum in red.
MS-based screening assays with peptides and calf thymus histones were as reported; see Supplementary Table 6 for conditions. Time course assays were based on reported procedures. In brief, equal volumes of the enzyme and substrate solutions were combined to initiate the reaction; 10 µL of 2% (v/v) formic acid (HCOOH) in ddH2O or 100% methanol was added to 10 µL of the reaction mixture to quench reactions at different time points. Unless otherwise stated, time course assays were carried out in triplicate. In some cases, LC–MS was used instead of MALDI-TOF MS to avoid a MALDI matrix induced artefact with the hydroxylated product (Supplementary Fig. 16). […]
Supplementary Figure 2 Histone H2a peptide fragments are substrates of KDM4s and KDM5s.
2 for representative corresponding MALDI–TOF MS traces. Bar graphs comparing % product format ion (+16 Da and demethylation) of H2a(1–20)R3me2a by (a) K DM5 A–D (after 90 minutes) and (b) KDM4A–E ( a ft er 60 minutes), analysed by MALDI– TOF MS. n = (a) 2, (b) 3 (independent assays). See Supplementary Table 6 for assay condit ions. See Figure S13 A 1 for a positive control.
(also on this page, place not known: formation KDM5A–D (after MALDI–TOF conditions. Figure S13A1 KDM4A KDM4B KDM4C KDM4D KDM4E 80% product formation KDM5A KDM5B KDM5C KDM5D % product formation) […]
(§1) [ E nz ym e] [Peptide] [2OG] [Ascorbate] [(NH4)2F e(S O4)2] [TCEP] Buffer pH7.5 Enzyme Cognate substrate (mM) (mM) (mM) (mM) (mM) (mM) [HE PE S]
(§2) Supplementary Table 6 Summary of MS assay conditions for substrate screening. These conditions enabled efficient turnover of established substrates. Reactions were carried out at 37 °C unless otherwise st ated. […]

KDM5C [2] = biological target: T1, KDM5C; experiment: MALDI–TOF MS time course / specific activity, KDM5C; type: biochemical; settings: for specific activity: KDM5C
Protocol: MS-based screening assays with peptides and calf thymus histones were as reported; see Supplementary Table 6 for conditions. Time course assays were based on reported procedures. In brief, equal volumes of the enzyme and substrate solutions were combined to initiate the reaction; 10 µL of 2% (v/v) formic acid (HCOOH) in ddH2O or 100% methanol was added to 10 µL of the reaction mixture to quench reactions at different time points. Unless otherwise stated, time course assays were carried out in triplicate. In some cases, LC–MS was used instead of MALDI-TOF MS to avoid a MALDI matrix induced artefact with the hydroxylated product (Supplementary Fig. 16).
Data collected from time course assay(s) were used to plot the % conversion vs time (min) using GraphPad Prism5 version 5.04; the resultant slopes were used to fit a line with linear regression to the first-order region of the reaction. The resultant gradient was then converted from % product formation min^−1 to amount of peptide converted (demethylation and / or hydroxylation) in µM.
Supplementary Figure 4 Activity of KDM5C (black circles) with H2a(1–20)R3me2a is greater than that of KDM4E (white circles). (a) A MALDI–TOF MS time course graph of product formation (%) of KDM4E ( −14 Da/+16 Da) and KDM5C (−14 Da) reaction with H2a(1–20)R3me2a versus time (minutes). ~60% substrate depletion was reached after 105 minutes with KDM4E; ~95% of H2a(1–20)R3me2a was demethylated after 1 05 minut e s wit h K DM5 C. (b ) Comparison of specific activities of KDM4E with H2a(1–20)R3me2a (0.15 […]
bars; +/- SD; n = 3 (independent assays). See Supplementary Table 6 for assay condit ions.
(also on this page, place not known: 105 minutes KDM5C. (b) H2a(1 –20)R3me2a with conditions. specific activity (pmol·min-1·μM-1))
(1 picture or pasted object on this page, not shown here)
as §1, §2

With “Ac - SGR [ me 2a ] GKQ GGKAR AKAKT R SSR [H2a(1–20)R3me2a, H2a(1–20)R3me2a without a biotin tag]” the “+16 Da (% product formation)” value (KDM5C [1]; replicate 1) was 0%, the “demethylation (% product formation)” value (KDM5C [1]; replicate 1) was 80.591% and the “+16 Da (% product formation)” value (KDM5C [1]; replicate 2) was 0%. The “demethylation (% product formation)” value (KDM5C [1]; replicate 2) was 82.588%, the “product formation (−14 Da)” value (KDM5C [2]; 0 min, replicate 1) was 0% and the “product formation (−14 Da)” value (KDM5C [2]; 0 min, replicate 2) was 0%. The “product formation (−14 Da)” value (KDM5C [2]; 0 min, replicate 3) was 0%, the “product formation (−14 Da)” value (KDM5C [2]; 5 min, replicate 1) was -4.611% and the “product formation (−14 Da)” value (KDM5C [2]; 5 min, replicate 2) was 1.214%. For the same substance, the “product formation (−14 Da)” value (KDM5C [2]; 5 min, replicate 3) was 6.766%, the “product formation (−14 Da)” value (KDM5C [2]; 15 min, replicate 1) was 6.633% and the “product formation (−14 Da)” value (KDM5C [2]; 15 min, replicate 2) was 6.871%. For the same substance, the “product formation (−14 Da)” value (KDM5C [2]; 15 min, replicate 3) was 19.5603%, the “product formation (−14 Da)” value (KDM5C [2]; 30 min, replicate 1) was 38.5829% and the “product formation (−14 Da)” value (KDM5C [2]; 30 min, replicate 3) was 44.7254%. The “product formation (−14 Da)” value (KDM5C [2]; 45 min, replicate 1) was 64.1732%, the “product formation (−14 Da)” value (KDM5C [2]; 45 min, replicate 2) was 64.8428% and the “product formation (−14 Da)” value (KDM5C [2]; 45 min, replicate 3) was 72.262%. For the same substance, the “product formation (−14 Da)” value (KDM5C [2]; 60 min, replicate 1) was 81.9609%, the “product formation (−14 Da)” value (KDM5C [2]; 60 min, replicate 2) was 81.6263% and the “product formation (−14 Da)” value (KDM5C [2]; 60 min, replicate 3) was 82.8852%. For the same substance, the “product formation (−14 Da)” value (KDM5C [2]; 75 min, replicate 1) was 85.9119%, the “product formation (−14 Da)” value (KDM5C [2]; 75 min, replicate 2) was 87.0734% and the “product formation (−14 Da)” value (KDM5C [2]; 75 min, replicate 3) was 90.3242%. For the same substance, the “product formation (−14 Da)” value (KDM5C [2]; 90 min, replicate 1) was 92.0497%, the “product formation (−14 Da)” value (KDM5C [2]; 90 min, replicate 2) was 90.1323% and the “product formation (−14 Da)” value (KDM5C [2]; 90 min, replicate 3) was 97.0348%. The “product formation (−14 Da)” value (KDM5C [2]; 105 min, replicate 1) was 95.3885%, the “product formation (−14 Da)” value (KDM5C [2]; 105 min, replicate 2) was 93.3144% and the “product formation (−14 Da)” value (KDM5C [2]; 105 min, replicate 3) was 100%. The specific activity (KDM5C [2]; mean of n = 3, SD 0.006) was 0.37 pmol min^−1 µM^−1, the specific activity (KDM5C [2]; repeat 1) was 0.3803 pmol·min-1·μM-1 and the specific activity (KDM5C [2]; repeat 2) was 0.3775 pmol·min-1·μM-1. For the same substance, the specific activity (KDM5C [2]; repeat 3) was 0.3654 pmol·min-1·μM-1 and the “RDM activity of KDM5C relative to KDM4E (times)” value (KDM5C [2]; ratio of specific activities) was 2.5 times.
